Results as given in PubChem BioAssay (NCI).
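Where inhibition never reached the appropriate level, the endpoint shown equals the highest concentration tested. Otherwise, values were interpolated linearly from a five-concentration, 48-hour dose response in 96-well plates. GI50: concentration for 50% inhibition of growth. TGI marks complete inhibition of growth.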

What was measured:
Test in all cases: NCI tumour cell line growth inhibition, 48 h
HCC-2998 colon = tested on: HCC-2998 colon
OVCAR-3 ovarian = tested on: OVCAR-3 ovarian
IGROV1 ovarian = tested on: IGROV1 ovarian
DU-145 prostate = tested on: DU-145 prostate
HOP-92 NSCLC = tested on: HOP-92 NSCLC
SF-539 CNS = tested on: SF-539 CNS
TK-10 renal = tested on: TK-10 renal
HOP-62 NSCLC = tested on: HOP-62 NSCLC
UO-31 renal = tested on: UO-31 renal
SR leukemia = tested on: SR leukemia

Compound	TGI (HCC-2998 colon) [µM]	TGI (OVCAR-3 ovarian) [µM]	TGI (IGROV1 ovarian) [µM]	TGI (DU-145 prostate) [µM]	TGI (HOP-92 NSCLC) [µM]	TGI (SF-539 CNS) [µM]	TGI (TK-10 renal) [µM]	TGI (HOP-62 NSCLC) [µM]	TGI (UO-31 renal) [µM]	TGI (SR leukemia) [µM]	GI50 (HCC-2998 colon) [µM]	GI50 (OVCAR-3 ovarian) [µM]	GI50 (IGROV1 ovarian) [µM]	GI50 (DU-145 prostate) [µM]	GI50 (HOP-92 NSCLC) [µM]	GI50 (SR leukemia) [µM]	GI50 (SF-539 CNS) [µM]	GI50 (HOP-62 NSCLC) [µM]	GI50 (UO-31 renal) [µM]	GI50 (TK-10 renal) [µM]
Cc1ccc(/C=C2/NC(=S)SC2=O)cc1	> 100	> 100	> 100	> 100	> 100	> 100	53.9	> 100	93.1	–	–	–	–	–	–	–	–	–	–	–
COC(=O)[C@]1(C)CCC[C@@]2(C)[C@@H]3C[C@@H]4[C@H]5C[C@@]3(CC[C@@H]21)C[C@@]45C	31	32.7	36	65.9	29.4	38.7	28.3	32.2	29.4	–	–	–	–	–	–	–	–	–	–	–
CCCCCCCCCCCCCCCCCCNC(=O)OCC(CNS(=O)(=O)CCC[n+]1cccc2ccccc21)COC (centres undefined)	–	48.5	–	34.3	4.01	5.63	31.1	38.9	> 75.1	> 100	–	–	–	–	–	–	–	–	–	–
Clc1ccc(-c2c(C3=NCCN3)nnn2-c2ccccc2)cc1	> 100	> 100	> 100	–	> 100	> 100	> 100	> 100	> 100	> 100	–	–	–	–	–	–	–	–	–	–
CN(C)CCCc1c2ccccc2nc2ccc(Cl)cc12	–	57.7	31	58.7	23.1	33.6	27.1	30	–	44.1	–	–	–	–	–	–	–	–	–	–
CC1(C)C=[N+]([O-])C(C)(C)N1O	> 10	> 10	–	> 10	> 10	–	> 10	> 10	> 10	> 10	–	–	–	–	–	–	–	–	–	–
CN1c2ccccc2S(=O)(=O)n2c(CCc3ccccc3)nnc21	> 100	> 100	> 100	> 100	98.7	> 100	> 100	> 100	> 100	–	–	–	–	–	–	–	–	–	–	–
CC1(C)C(=O)C=CC2(C)C1CC(O)C1(C)C2CCC2(C)C(c3ccoc3)OC(=O)C3OC321 (centres undefined)	26.2	36	33.9	51.4	38.5	–	37.5	85.7	25.8	–	–	–	–	–	–	–	–	–	–	–
C[C@]12CC[C@H]3[C@@H](CC[C@]4(O)C[C@@H](O)CC[C@]34CO)[C@@]1(O)CC[C@@H]2C1=CC(=O)OC1	67.9	3.21	> 100	2.24	18.9	2.41	4.91	3.89	–	> 100	–	–	–	–	–	–	–	–	–	–
COC(=O)C1Cc2c([nH]c3ccccc23)C(c2ccccc2O)N1Cc1ccccc1 (centres undefined)	> 31.6	39.2	33.3	–	43.5	65.2	> 46.4	> 63.5	> 46.4	> 31.6	–	–	–	–	–	–	–	–	–	–
NNS(=O)(=O)c1cc(C(=O)O)cc(C(=O)O)c1	–	> 100	> 100	> 100	> 100	> 100	> 100	> 100	> 100	> 100	–	–	–	–	–	–	–	–	–	–
CC1=C(/C=C/C(C)=C/C=C/C(C)=C/C=C/C=C(C)/C=C/C=C(C)/C=C/C2=C(C)C(=O)C(O)CC2(C)C)C(C)(C)CC(O)C1=O (centres undefined)	> 100	> 100	> 100	–	> 100	> 100	> 100	> 100	> 100	> 100	–	–	–	–	–	–	–	–	–	–
CNCCNc1nc2ccccc2c2c(=O)c3cc(F)ccc3sc12	3.45	3.25	3.34	3.15	7.42	3.13	–	3.21	2.81	4.31	1.7	1.7	1.75	1.71	1.73	1.83	1.71	1.48	1.39	–
NC(=S)N/N=C1\CCCC1C(O)(C(F)(F)Cl)C(F)(F)Cl (centres undefined)	> 10	> 10	> 10	> 10	> 10	> 10	> 10	> 10	–	> 10	–	–	–	–	–	–	–	–	–	–
CNCCNc1nc2ccccc2c2c(=O)c3cc(OC)ccc3sc12	2.9	3.43	3.04	3.16	3.32	3.03	–	3.22	2.6	4.23	1.47	1.84	1.55	1.73	1.29	1.74	1.66	1.49	1.29	–
Cc1c(C(=O)CC(=O)C(=O)Nc2cc(Cl)ccc2Cl)[n+](=O)c2ccccc2n1[O-]	> 100	61	> 100	–	> 100	> 100	> 100	> 100	> 100	63.6	–	–	–	–	–	–	–	–	–	–
O=c1cc(-c2ccccn2)[nH]c2cc(F)ccc12	> 100	> 100	> 100	–	> 100	> 100	> 100	> 100	> 100	> 100	–	–	–	–	–	–	–	–	–	–
CC[C@H](Nc1nc(N)nc(C2CC2)c1C#N)c1nc2cccc(NCc3ccc(C(=O)NO)cc3)c2c(=O)n1-c1ccccc1	5	4.55	–	4.56	4.59	3.24	30.3	4.29	2.59	–	1.95	1.73	–	1.95	1.73	–	1.72	1.63	1.26	2.75
O=C(O)c1cccc(/C=C/c2ccccc2)c1	–	> 100	> 100	> 100	> 100	> 100	> 100	> 100	> 100	–	–	–	–	–	–	–	–	–	–	–
Nc1nc(N)nc(CC(=O)O)n1	–	> 100	> 100	> 100	> 100	> 100	> 100	> 100	> 100	> 100	–	–	–	–	–	–	–	–	–	–
COc1cc(/C=C/c2ccc(OC)c(OC)c2OC)cc(OC)c1OC	18.6	39.3	83.3	–	31.8	37	> 82.9	32.9	46.3	78.5	–	–	–	–	–	–	–	–	–	–
